The text below walks through data of ChEMBL document CHEMBL1201862, “PubChem BioAssay data set” (2004).

One test addresses Bcl-2-like protein 10 (Homo sapiens, UniProt Q9HD36). The test can be described thus: displacers of TR3 peptide from Bcl-B, primary screen, selectivity assay for Bfl-1 inhibitor project, biochemical, fluorescence polarization, FITC-TR3 peptide (AID 748).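 Also: fluorescence polarization from a fluorescein-labelled TR3 peptide binding purified Bcl-B.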
Test [1] addresses T1, DNA repair and recombination protein RAD54-like (Homo sapiens, UniProt Q92698).
T1 sequence (Q92698 whole entry): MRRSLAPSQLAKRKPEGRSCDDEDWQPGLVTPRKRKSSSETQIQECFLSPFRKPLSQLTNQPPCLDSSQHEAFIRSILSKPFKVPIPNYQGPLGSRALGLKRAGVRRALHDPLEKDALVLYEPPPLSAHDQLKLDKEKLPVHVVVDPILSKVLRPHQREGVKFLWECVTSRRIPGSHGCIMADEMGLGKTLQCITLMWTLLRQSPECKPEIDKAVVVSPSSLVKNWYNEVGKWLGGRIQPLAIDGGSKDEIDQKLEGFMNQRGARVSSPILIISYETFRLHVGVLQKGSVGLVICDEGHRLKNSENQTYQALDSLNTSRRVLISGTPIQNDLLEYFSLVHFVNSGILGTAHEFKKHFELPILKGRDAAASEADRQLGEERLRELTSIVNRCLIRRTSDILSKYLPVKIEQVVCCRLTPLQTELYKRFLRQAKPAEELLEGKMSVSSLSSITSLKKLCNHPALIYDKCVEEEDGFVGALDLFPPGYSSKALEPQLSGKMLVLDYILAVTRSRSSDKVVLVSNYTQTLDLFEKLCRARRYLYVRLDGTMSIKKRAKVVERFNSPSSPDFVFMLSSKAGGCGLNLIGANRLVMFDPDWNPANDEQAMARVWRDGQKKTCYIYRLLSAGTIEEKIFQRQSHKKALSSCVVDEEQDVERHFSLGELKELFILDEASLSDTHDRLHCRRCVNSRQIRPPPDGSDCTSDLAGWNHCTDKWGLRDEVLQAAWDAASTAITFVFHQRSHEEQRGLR
The test can be described thus: inhibitors of human RAD54 branch migration, confirmation, biochemical, fluorescence, cherry-picked samples, dose series (AID 651657). The format is functional.

For the next test, the system named is MDA-MB-435. Nature of the test: cells. The format is functional, cell-based. As to conditions: Homo sapiens.
A short description of a further test: cells. The format is functional, cell-based. As to conditions: PPC-1.
Test [2] deals with T2, Voltage-gated N-type calcium channel alpha-1B subunit/Amyloid beta A4 precursor protein-binding family A member 1 (Homo sapiens, UniProt Q00975+Q02410). The format is protein assay.
T2 sequence (Q00975 whole entry): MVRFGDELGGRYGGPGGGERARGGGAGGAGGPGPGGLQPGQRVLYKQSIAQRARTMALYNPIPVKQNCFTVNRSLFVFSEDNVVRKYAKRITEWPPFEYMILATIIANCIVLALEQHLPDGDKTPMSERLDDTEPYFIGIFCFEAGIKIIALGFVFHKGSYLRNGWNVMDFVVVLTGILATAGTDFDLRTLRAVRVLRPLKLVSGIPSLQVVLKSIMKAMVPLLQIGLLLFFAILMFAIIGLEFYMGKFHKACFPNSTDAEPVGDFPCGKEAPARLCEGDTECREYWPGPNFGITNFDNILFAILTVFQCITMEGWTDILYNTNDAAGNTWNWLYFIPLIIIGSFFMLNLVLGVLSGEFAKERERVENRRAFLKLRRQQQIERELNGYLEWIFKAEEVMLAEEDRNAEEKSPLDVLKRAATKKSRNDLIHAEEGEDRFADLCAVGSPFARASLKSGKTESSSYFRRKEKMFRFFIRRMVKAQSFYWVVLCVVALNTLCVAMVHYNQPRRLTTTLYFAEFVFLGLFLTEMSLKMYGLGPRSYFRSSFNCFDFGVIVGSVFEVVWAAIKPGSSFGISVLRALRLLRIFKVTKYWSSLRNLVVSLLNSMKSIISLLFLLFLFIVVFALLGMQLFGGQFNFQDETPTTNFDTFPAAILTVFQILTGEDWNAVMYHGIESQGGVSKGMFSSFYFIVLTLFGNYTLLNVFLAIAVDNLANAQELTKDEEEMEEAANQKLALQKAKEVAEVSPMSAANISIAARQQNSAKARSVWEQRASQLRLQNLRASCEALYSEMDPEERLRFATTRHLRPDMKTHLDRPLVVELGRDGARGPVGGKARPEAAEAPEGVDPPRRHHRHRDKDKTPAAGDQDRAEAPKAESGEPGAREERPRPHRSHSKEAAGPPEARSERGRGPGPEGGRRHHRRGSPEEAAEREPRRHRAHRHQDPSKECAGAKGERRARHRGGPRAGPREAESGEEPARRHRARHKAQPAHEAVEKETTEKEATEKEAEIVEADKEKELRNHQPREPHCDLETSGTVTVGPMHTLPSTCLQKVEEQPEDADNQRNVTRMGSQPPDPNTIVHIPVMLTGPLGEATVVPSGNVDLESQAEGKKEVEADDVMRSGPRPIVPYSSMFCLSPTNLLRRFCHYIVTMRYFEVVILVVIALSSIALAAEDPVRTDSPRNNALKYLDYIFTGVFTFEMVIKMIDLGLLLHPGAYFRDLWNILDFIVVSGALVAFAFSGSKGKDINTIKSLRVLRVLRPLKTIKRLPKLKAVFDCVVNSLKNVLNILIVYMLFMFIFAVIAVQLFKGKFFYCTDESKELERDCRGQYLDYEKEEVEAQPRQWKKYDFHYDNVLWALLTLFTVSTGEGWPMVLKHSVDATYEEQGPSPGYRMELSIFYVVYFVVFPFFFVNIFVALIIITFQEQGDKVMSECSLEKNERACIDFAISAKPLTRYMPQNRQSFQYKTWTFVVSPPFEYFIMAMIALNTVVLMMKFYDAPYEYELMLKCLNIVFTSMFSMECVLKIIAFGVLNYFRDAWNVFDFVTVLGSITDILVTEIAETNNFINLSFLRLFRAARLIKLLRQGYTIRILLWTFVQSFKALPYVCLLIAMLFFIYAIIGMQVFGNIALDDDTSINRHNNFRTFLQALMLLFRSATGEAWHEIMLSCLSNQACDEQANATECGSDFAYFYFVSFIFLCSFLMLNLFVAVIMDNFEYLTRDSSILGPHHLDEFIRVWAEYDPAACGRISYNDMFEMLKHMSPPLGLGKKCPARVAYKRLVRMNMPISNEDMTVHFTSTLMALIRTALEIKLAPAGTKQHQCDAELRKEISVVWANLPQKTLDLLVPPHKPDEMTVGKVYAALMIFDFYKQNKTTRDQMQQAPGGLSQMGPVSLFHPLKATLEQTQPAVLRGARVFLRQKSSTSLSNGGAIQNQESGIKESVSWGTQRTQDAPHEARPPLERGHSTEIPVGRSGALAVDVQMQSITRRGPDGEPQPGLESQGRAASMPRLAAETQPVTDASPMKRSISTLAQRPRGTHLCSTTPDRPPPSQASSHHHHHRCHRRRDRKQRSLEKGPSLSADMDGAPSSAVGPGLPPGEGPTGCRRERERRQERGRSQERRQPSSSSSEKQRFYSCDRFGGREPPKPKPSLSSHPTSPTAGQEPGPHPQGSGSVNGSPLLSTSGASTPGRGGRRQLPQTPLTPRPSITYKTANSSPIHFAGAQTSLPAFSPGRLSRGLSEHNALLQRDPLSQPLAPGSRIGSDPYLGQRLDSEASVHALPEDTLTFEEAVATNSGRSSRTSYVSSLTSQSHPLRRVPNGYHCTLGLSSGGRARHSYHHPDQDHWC
T2 sequence (Q02410 whole entry): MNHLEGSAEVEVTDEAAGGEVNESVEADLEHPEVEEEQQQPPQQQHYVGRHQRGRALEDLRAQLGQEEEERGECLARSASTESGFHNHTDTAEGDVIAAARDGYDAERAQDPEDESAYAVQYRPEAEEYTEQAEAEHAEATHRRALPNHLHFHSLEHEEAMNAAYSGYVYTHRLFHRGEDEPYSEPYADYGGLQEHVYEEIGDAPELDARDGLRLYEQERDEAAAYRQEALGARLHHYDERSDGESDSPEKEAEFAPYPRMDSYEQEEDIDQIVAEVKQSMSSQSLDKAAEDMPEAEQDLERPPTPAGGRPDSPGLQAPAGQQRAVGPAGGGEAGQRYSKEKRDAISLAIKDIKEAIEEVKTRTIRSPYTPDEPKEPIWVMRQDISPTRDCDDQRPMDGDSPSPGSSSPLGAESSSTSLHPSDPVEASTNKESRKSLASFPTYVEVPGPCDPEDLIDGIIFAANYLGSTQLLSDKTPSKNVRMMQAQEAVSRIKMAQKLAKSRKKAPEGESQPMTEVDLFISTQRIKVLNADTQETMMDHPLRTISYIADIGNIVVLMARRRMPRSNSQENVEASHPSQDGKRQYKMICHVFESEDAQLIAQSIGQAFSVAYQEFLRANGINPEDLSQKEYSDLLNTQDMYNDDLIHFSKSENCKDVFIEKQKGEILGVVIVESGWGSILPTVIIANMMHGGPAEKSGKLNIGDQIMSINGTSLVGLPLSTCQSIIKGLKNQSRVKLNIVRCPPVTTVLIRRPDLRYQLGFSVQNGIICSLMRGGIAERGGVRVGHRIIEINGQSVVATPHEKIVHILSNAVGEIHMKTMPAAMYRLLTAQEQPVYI
Test [3] addresses Glucose-6-phosphate 1-dehydrogenase (Homo sapiens, UniProt P11413). Nature of the test: human G6PD enzyme inhibitors, dose response, selectivity assay for P. falciparum G6PD inhibitor project, biochemical, fluorescence (AID 504792). The format is functional.
Another test has as its target Beta Lactamase (Pseudomonas aeruginosa, UniProt Q932Y6). Nature of the test: beta-lactamase reporter inhibitor potency, dose response, artefact control for NOD2-RIPK2 interaction inhibitor project, BLA reporter cells, FRET fluorescence (AID 651552). The format is functional, cell-based.
The target in the next test is Large T antigen (Simian virus 40, UniProt P03070). The format is functional, Betapolyomavirus macacae.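 Also: Confirmatory-stage PubChem screen for compounds that inhibit SV40 T antigen.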
Test [4] is described as follows: Fluorescence-based cell-based high throughput dose response assay for inhibitors of the interaction of nucleotide-binding oligomerization domain containing 2 (NOD2) and the receptor-interacting serine-threonine kinase 2 (RIPK2). The format is functional. Particulars: Homo sapiens.
The target in test [5] is T2, Voltage-gated N-type calcium channel alpha-1B subunit/Amyloid beta A4 precursor protein-binding family A member 1. The format is protein assay. This is another data set of the same source.
The target in another test is Keap1/Nrf2 (Homo sapiens, UniProt Q14145). Nature of the test: Keap1-Nrf2 protein-protein interaction inhibitors, dose response, biochemical, fluorescence polarization, cherry-picked samples (AID 588683). For orientation: In fluorescence polarisation assays a small probe gives low polarisation when free and higher when bound to something large.
For another test, the target named is ORF 73 (Human herpesvirus 8, UniProt O40947). The test can be described thus: inhibitors of C-LANA binding to LBS DNA, dose response, biochemical, fluorescence polarization, cherry-picked samples (AID 504725).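 Also: fluorescence polarization of a labeled DNA duplex reporting LANA DNA binding; potency is for inhibitors that block LANA binding to the DNA.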 More on the design: species or system Human gammaherpesvirus 8.
Test [6] deals with T3, Rac GTPase-activating protein 1 (Homo sapiens, UniProt Q9H0H5).
T3 sequence (Q9H0H5 whole entry): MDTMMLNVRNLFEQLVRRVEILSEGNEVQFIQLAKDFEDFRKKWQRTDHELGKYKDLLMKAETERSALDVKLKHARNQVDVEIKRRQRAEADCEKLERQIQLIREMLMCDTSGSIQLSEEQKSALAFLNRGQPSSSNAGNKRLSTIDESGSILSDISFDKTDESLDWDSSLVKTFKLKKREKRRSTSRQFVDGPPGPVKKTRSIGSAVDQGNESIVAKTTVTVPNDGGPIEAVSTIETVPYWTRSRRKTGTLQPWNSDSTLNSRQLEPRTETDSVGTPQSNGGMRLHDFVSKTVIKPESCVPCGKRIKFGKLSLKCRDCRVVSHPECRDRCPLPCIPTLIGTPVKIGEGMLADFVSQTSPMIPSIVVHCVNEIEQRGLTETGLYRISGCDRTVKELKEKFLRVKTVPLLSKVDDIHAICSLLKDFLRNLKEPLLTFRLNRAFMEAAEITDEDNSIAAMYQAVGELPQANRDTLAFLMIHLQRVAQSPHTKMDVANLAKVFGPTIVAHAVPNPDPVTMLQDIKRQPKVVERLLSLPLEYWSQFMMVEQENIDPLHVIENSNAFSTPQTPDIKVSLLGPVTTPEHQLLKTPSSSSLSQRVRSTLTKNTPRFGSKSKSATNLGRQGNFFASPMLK
Nature of the test: MgcRacGAP GTPase-activating activity inhibitors, confirmation, biochemical, ADP Hunter fluorescence, primary and confirmatory (AID 624330). The format is functional.

A further test has as its target T4, Protein Tat (Human immunodeficiency virus type 1 group M subtype B (isolate HXB2)(HIV-1), UniProt P04608).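 Also: tat binding to TAR RNA read out by fluorescence polarization.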
T4 sequence (P04608 whole entry): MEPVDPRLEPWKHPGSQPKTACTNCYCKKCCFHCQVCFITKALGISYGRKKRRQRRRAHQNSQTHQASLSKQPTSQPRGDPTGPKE
The format is functional.

Test [7] has as its target T5, Alkaline phosphatase, tissue-nonspecific isozyme (Homo sapiens, UniProt P05186).
T5 sequence (P05186 whole entry): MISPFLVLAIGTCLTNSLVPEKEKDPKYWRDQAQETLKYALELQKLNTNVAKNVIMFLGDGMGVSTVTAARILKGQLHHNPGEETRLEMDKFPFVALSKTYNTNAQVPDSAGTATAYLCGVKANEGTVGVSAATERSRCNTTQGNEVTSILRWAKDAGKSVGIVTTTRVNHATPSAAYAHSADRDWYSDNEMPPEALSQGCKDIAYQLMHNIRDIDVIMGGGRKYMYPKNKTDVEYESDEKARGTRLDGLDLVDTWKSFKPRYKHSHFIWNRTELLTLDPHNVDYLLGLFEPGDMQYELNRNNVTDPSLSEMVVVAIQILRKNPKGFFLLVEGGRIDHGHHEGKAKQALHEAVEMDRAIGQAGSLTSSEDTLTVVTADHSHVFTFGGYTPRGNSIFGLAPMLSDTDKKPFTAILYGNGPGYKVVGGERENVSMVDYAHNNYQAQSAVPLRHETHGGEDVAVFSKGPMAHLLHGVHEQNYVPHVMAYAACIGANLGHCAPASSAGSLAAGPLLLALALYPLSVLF
The test can be described thus: human TNAP enzyme inhibitors, SAR follow-up, biochemical, luminescent, dose response (AID 1056).

The target in test [8] is Alkaline phosphatase, placental type (Homo sapiens, UniProt P05187). Nature of the test: PLAP enzyme inhibitors, confirmation, biochemical, luminescence (AID 1512). The format is functional.
Test [9] deals with Glyceraldehyde-3-phosphate dehydrogenase (Homo sapiens, UniProt P04406).
Test [10] can be described thus: HepG2 cell cytotoxicity, dose response, cytotoxicity control for Shn3 inhibitor project, CellTiter-Glo, cherry-picked (AID 624134). The format is functional, cell-based. A general note: In ATP-based viability assays light output follows the ATP content of the culture.
The nature of test [11]: non-specific cell cytotoxicity, dose response, cytotoxicity control for PAX8 inhibitor project, plate reader, dry powder samples (AID 743021). The format is functional, cell-based.
Test [12] can be described thus: Shn3 3'UTR reporter inhibitors, dose response, cell-based, Clone20 osteoblasts, firefly luciferase, cherry-picked (AID 624132).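 Also: firefly luciferase luminescence from reporter carrying the Shn3 3'UTR in osteoblasts.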 The format is functional.
Another test addresses Paired box protein Pax-8 (Homo sapiens, UniProt Q06710). Nature of the test: inhibitors of PAX8-driven TPO luciferase reporter, dose response, RMG-I cells, cherry-pick (AID 687027).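 Also: luciferase reporter driven by Pax8 target thyroperoxidase promoter measured by SteadyGlo luminescence.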 The format is functional, cell-based. For orientation: In a reporter assay the amount or activity of a reporter protein is the signal.
For a further test, the target named is Beta-galactosidase (Escherichia coli, UniProt Q8VNN2). Nature of the test: beta-galactosidase enzyme inhibitors and activators, dose response, artefact control for CCR6 antagonist project, biochemical, E. coli enzyme, set 3 (AID 504712). The format is functional.
The target of another test is Mu-type opioid receptor (Homo sapiens, UniProt P35372). Nature of the test: SAR Analysis of Agonists of the MOR Receptor using an Image-Based Assay - Set 3. [Related pubchem assays (depositor defined):AID1777, AID1785, AID1786, AID1966, AID2133, AID2136, AID2284, AID2285, AID2352]. The format is functional.
Sequence of Mu-type opioid receptor (P35372 whole entry): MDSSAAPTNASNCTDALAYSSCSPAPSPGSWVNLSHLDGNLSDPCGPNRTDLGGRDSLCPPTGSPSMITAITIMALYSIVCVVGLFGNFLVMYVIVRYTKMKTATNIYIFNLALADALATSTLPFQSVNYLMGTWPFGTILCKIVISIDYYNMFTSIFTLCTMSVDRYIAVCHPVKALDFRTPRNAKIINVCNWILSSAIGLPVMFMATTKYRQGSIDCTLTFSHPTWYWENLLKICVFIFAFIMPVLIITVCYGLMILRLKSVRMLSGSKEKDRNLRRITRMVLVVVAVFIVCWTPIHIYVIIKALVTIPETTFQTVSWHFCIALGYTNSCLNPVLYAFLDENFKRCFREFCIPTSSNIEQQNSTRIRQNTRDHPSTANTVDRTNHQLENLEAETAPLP
Test [13] concerns the target T6, Kappa-type opioid receptor (Homo sapiens, UniProt P41145). The test can be described thus: KOR agonist analogs, arrestin-GFP redistribution, SAR follow-up, imaging, image-based, set 3 (AID 488833). The format is functional.
The target in test [14] is T6, Kappa-type opioid receptor. Nature of the test: SAR analysis of small molecule agonists of the kappa opioid receptor via a luminescent beta-arrestin assay - Set 3. [Related pubchem assays (depositor defined):AID1777, AID1785, AID1786, AID1966, AID2133, AID2136, AID2284, AID2500]. The format is functional.
The target of test [15] is Delta-type opioid receptor (Homo sapiens, UniProt P41143). Nature of the test: SAR Analysis of Agonists of the DOR Receptor using an Image-Based Assay - Set 3. [Related pubchem assays (depositor defined):AID1777, AID1786]. The format is functional.
Sequence of Delta-type opioid receptor (P41143 whole entry): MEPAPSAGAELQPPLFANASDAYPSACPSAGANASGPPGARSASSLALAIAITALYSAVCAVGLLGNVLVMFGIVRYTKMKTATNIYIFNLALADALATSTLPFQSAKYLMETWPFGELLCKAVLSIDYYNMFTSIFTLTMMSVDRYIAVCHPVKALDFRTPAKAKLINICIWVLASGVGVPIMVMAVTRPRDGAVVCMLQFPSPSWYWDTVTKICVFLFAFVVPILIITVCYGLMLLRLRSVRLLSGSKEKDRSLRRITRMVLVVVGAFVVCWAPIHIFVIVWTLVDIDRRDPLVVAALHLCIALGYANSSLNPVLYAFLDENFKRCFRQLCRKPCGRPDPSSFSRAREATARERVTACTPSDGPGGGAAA
Test [16] has as its target Voltage-dependent T-type calcium channel subunit alpha-1H (Homo sapiens, UniProt O95180). The test can be described thus: Cav3.2 T-type channel inhibitors, cell-based, synthetic library set 1, calcium flux (AID 493022). The format is functional.
Another test has as its target Neutrophil collagenase (Homo sapiens, UniProt P22894). Nature of the test: MMP13 inhibition and MMP selectivity, late-stage follow-up, selectivity assay for MMP13 inhibitor project, biochemical, probe development, late stage results, panel member MMP-8 [IC50 Assay] (AID 2067).

Each structure is given as a SMILES string. Calls of active or inactive are those of the source.

T6 sequence (P41145 whole entry): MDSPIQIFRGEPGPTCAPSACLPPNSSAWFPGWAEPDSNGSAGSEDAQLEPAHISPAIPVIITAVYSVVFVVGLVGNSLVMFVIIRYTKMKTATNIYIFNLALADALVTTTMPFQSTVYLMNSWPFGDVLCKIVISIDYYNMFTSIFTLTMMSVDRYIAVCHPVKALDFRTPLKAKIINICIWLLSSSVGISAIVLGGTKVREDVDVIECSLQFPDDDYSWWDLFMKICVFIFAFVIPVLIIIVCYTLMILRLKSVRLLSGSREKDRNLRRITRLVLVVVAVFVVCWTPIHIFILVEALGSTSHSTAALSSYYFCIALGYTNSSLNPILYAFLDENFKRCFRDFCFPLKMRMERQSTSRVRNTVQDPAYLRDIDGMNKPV
Sequence of Bcl-2-like protein 10 (Q9HD36 whole entry): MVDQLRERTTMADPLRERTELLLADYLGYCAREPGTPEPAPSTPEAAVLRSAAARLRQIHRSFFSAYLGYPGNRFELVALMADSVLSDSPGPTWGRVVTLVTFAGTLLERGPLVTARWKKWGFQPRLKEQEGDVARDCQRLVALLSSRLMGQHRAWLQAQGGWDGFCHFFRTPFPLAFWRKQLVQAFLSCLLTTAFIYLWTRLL
Sequence of Glucose-6-phosphate 1-dehydrogenase (P11413 whole entry): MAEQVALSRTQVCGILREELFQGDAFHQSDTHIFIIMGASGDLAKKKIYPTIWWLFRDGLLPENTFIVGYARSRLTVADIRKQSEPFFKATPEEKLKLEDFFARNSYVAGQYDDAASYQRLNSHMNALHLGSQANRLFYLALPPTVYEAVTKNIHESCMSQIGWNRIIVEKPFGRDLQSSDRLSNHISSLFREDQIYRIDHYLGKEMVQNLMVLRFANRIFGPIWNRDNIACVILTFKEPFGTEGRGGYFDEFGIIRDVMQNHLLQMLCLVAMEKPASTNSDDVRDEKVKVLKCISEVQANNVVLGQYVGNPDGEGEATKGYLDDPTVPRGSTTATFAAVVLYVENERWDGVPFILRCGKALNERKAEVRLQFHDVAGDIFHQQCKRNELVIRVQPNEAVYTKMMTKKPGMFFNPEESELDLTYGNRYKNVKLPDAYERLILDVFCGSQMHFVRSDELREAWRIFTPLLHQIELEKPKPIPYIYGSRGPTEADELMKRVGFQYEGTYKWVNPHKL

The term IC50 denotes the concentration that inhibits the measured activity by half. Usually AC50 stands for the concentration giving half of the maximal activity seen. For `CN(C)CCSc1nc(N)c2c3c(sc2n1)CN(C)CC3`, the IC50 on Bcl-2-like protein 10 was 46.2 µM (active). The AC50 in [1] is 28.9 µM (active).
Consider `COc1cc(-c2ccccc2)nc(S)n1`, for which the IC50 with MDA-MB-435 and in “cells” was > 10 µM (inactive) throughout.
Take `N#C/C(C(=O)Nc1ccc(Cl)cc1)=C(/S)Nc1ccccc1`: the IC50 in test [2] is 13.9 µM (active); in test [3], 52 µM (inactive); at Beta Lactamase, 49.8 µM (inactive); on Large T antigen, 16.5 µM (active); in test [4], 19.6 µM (inactive); in [5], 25.5 µM (active).
As to `Cc1nc2ccccc2n2c(O)c(CC(=O)O)cc12`, the AC50 at Keap1/Nrf2 was 12.3 µM (active); on ORF 73, 10 µM (active). The IC50 is 35 µM (active) in [6] and 6.32 µM (inconclusive) on Protein Tat.
With `CC(C)(C)NC(=O)c1cc(-c2cc(F)c(Cl)cc2Cl)n[nH]1`, the IC50 was 1.08 µM (active) in test [7], > 100 µM (inactive) in test [8] and > 100 µM (not active) in test [9].
Regarding `O=C(OCc1ccccc1)N(CCCCN(CCCNCc1ccccc1)C(=O)OCc1ccccc1)CCCNCc1ccccc1`, the AC50 in [10] is 4.16 µM (active); in test [11] it was 10.3 µM (active); in test [12], 5.36 µM (active); on Paired box protein Pax-8, 9.11 µM (active). The IC50 at Beta-galactosidase was > 66.6 µM (inactive).
The term EC50 denotes the concentration needed to bring the measured effect to its halfway point. For the compound `N#Cc1ccc(CSc2nnc(-c3ccccn3)n2Cc2ccco2)cc1`, the EC50 was > 32 µM (inactive) at Mu-type opioid receptor, 19.3 µM (inactive) in test [13], 6.79 µM (active) in [14] and > 64 µM (inactive) in test [15].
As to `O=C(COc1ccc(F)c(Cl)c1)Nc1nnc(-c2ccc3c(c2)CCCC3)o1`, in test [16], the EC50 was 2.4 µM (active).
Consider `Oc1nc(SCc2ccc(Cl)cc2)nc2c1CCC2`, for which the IC50 on Neutrophil collagenase is > 39.8 µM (active).
